According to paper PMC12040169 (PLOS Biology, 2025):

Assay: in vitro
Settings: human, hela cells, % viability

Structure (SMILES)	viability at 28.5 h, 10 µM
COc1cc(F)ccc1-c1nc(N)cc2cccnc12 [CBK081176]	88.9%
Nc1c(-c2cccc(C(F)(F)F)c2)cnc2cccnc12 [CBK081187]	88.7%
COc1cc(-c2cnc3cccnc3c2N)cc(OC)c1OC [CBK081190]	93.1%
CCCCc1ccc(-c2cc3ncccc3nc2N)cc1 [CBK081198]	96.3%
Nc1nc2cccnc2cc1-c1cccc(C(F)(F)F)c1 [CBK081200]	103%
Nc1nc2cccnc2cc1-c1ccc2c(c1)OCCCO2 [CBK081201]	97.7%
COc1ccc(C(C)C)cc1-c1cnc2cccnc2c1N [CBK081211]	105%
Nc1nc2cccnc2cc1-c1ccsc1 [CBK081214]	85.8%
CCCCc1ccc(-c2nc(NC(=O)NCC)cc3cccnc23)cc1 [CBK081231]	94.6%
CCNC(=O)Nc1nc2cccnc2cc1-c1ccc(OC)c(C)c1 [CBK081241]	94.6%
CC(C)C(=O)Nc1cc2cccnc2c(-c2ccsc2)n1 [CBK081259]	100%
CSc1ccc(-c2nc(NC(=O)C(C)C)cc3cccnc23)cc1 [CBK081262]	100%
CC(C)(C)c1ccc(-c2cnc3nc(O)ccc3c2)cc1 [CBK081284]	74.6%
Oc1ccc2cc(-c3cccc(C(F)(F)F)c3)cnc2n1 [CBK081285]	59.5%
Oc1c(-c2cccc(C(F)(F)F)c2)cnc2cccnc12 [CBK081290]	87.1%
CCCCc1ccc(-c2cnc3nc(O)ccc3c2)cc1 [CBK081296]	69.9%
O=S(=O)(c1ccc(I)cc1)n1ccc2c(N3CCNCC3)cncc21 [CBK081326C]	84.9%
C(=C\c1ccc(-c2nnc(CSCCOc3ccccc3)o2)cc1)/CN1CCCC1 [CBK081376]	98.5%

Structure (SMILES)	viability at 28.5 h, 10 µM
COc1ccc(C(NC(=O)C2CCN(Cc3ccc4c(c3)OCO4)CC2)c2ccccc2C)cn1 (stereo not drawn) [CBK081453T]	121%
COc1ccc(C(NC(=O)N2CCN(C(=O)NCc3ccccc3Cl)CC2)c2ccccc2C)cn1 (stereo not drawn) [CBK081471]	88.7%
CCCCC1CCC(C(=O)Oc2ccccc2OCCO)CC1 (stereo not drawn) [CBK081498]	90.6%
CCC1CCCCN1C(=O)c1cccc(C)c1C (stereo not drawn) [CBK081501]	96.5%
CCC1CCCCN1C(=O)c1cccc(OC)c1 (stereo not drawn) [CBK081504]	98%
CC(C)Nc1cc(Cl)ncn1 [CBK081511]	108%
CCN(CC)C(=O)CCCc1[nH]nc(O)c1Cc1c(Cl)cccc1Cl [CBK081524]	89%
CCC1CCCCN1C(=O)c1ccc(C)c(OC)c1 (stereo not drawn) [CBK081557]	103%
COc1ccc([C@@]23CC[C@@H](NC(=O)c4ccc(C(F)(F)F)c(F)c4)C[C@@H]2CN(C)C3)cc1OC [CBK082742C]	107%
COc1ccc([C@]23CC[C@H](NC(=O)c4ccc(C(F)(F)F)c(F)c4)C[C@H]2CN(C)C3)cc1OC [CBK082743T]	110%
CCC1CCCCN1C(=O)c1ccc(C)c(Cl)c1 (stereo not drawn) [CBK082756]	91.7%
COc1ccc2[nH]c3c(c2c1)CCN(C(=O)CNCC(=O)O)C31CCN(CCOc2ccccc2)C1 (stereo not drawn) [CBK082782T]	114%
O=[N+]([O-])c1ccc(CN2CCN(c3nccnc3OCC3COc4ccccc4O3)CC2)cc1 (stereo not drawn) [CBK082791T]	107%
c1ccc(CCN2CCN(c3nccnc3OCC3COc4ccccc4O3)CC2)cc1 (stereo not drawn) [CBK082794T]	99.4%
CSCCN1CCN(c2nccnc2OCC2COc3ccccc3O2)CC1 (stereo not drawn) [CBK082806T]	85.2%
COc1ccc2[nH]c3c(c2c1)CCN(CCc1ccc(F)cc1)C3 [CBK082819T]	92.3%
Clc1ccc(CN2CCN(c3nccnc3OC3CCCCC3)CC2)cc1 [CBK082826T]	101%
COc1ccc(CN2CCN(c3nccnc3OC3CCCCC3)CC2)cc1 [CBK082830T]	115%
